IC50 data for five molecules are collected here from patent US9216957B2, “Androgen receptor antagonists and uses thereof” (SUZHOU KINTOR PHARMACEUTICALS, INC., priority 2011, dated 2015).

For the assay, the system named is Prostate-specific antigen (PSA) production in LNCaP cells. Kind of assay: PSA Assay (inhibition of PSA production in prostate cancer cells, ELISA). It is filed as cell-based, human. The settings on record: Homo sapiens, LNCaP, 72 h, read-out: LNCAP IC50 (uM), inhibition of PSA production, LNCaP cells, R1881 1 ng/ml, three days, seven point assay. A general note: In an ELISA, binding on a coated surface is turned into a signal by an enzyme label.
On to `N#Cc1ccc(N2C(=O)C3(CCC3)N(c3ccc(CCCc4ncco4)nc3)C2=S)c(F)c1C(F)(F)F` [Example 65, 3-Fluoro-4-{5-[6-(3-oxazol-2-yl-propyl)-pyridin-3-yl]-8-oxo-6-thioxo-5,7-diaza-spiro[3.4]oct-7-yl}-2-trifluoromethyl-benzonitrile], for which the IC50 is 0.6 µM.

Regarding `CC1(C)C(=O)N(c2ccc(C#N)c(C(F)(F)F)c2F)C(=S)N1c1ccc(CCCc2ncc[nH]2)nc1` [Example 66, 4-(3-(6-(3-(1H-imidazol-2-yl)propyl)pyridin-3-yl)-4,4-dimethyl-5-oxo-2-thioxoimidazolidin-1-yl)-3-fluoro-2-(trifluoromethyl)benzonitrile], the IC50 was 1.27 µM.

As to `CC1(C)C(=O)N(c2ccc(C#N)c(C(F)(F)F)c2F)C(=S)N1c1ccc(CCCc2nccs2)nc1` [Example 67, 4-(4,4-dimethyl-5-oxo-3-(6-(3-(thiazol-2-yl)propyl)pyridin-3-yl)-2-thioxoimidazolidin-1-yl)-3-fluoro-2-(trifluoromethyl)benzonitrile], the IC50 was 0.27 µM.

Take `N#Cc1ccc(N2C(=O)C3(CCC3)N(c3ccc(CCCc4nccs4)nc3)C2=S)c(F)c1C(F)(F)F` [Example 68, 3-fluoro-4-(8-oxo-5-(6-(3-(thiazol-2-yl)propyl)pyridin-3-yl)-6-thioxo-5,7-diazaspiro[3.4]octan-7-yl)-2-(trifluoromethyl)benzonitrile]: the IC50 was determined as 0.61 µM.

In the case of `COc1cc(N2C(=O)C(C)(C)N(c3ccc(CCCc4nccs4)nc3)C2=S)ccc1C#N` [Example 69, 4-(4,4-dimethyl-5-oxo-3-(6-(3-(thiazol-2-yl)propyl)pyridin-3-yl)-2-thioxoimidazolidin-1-yl)-2-methoxybenzonitrile], the IC50 worked out at 0.68 µM.
